We go through 7 compounds from patent US9725414B2, “Fungicidal N-bicycloalkyl and N-tricycloalkyl pyrazole-4-(thio)carboxamide derivatives” (priority 2011, dated 2017).

Series [1] in a line: log P by HPLC on reversed-phase column (C 18), EEC Directive 79831 Annex V.A8. The series is classed as physicochemical. The settings on record: HPLC reversed-phase C 18, 40° C., 0.1% aqueous formic acid and acetonitrile gradient; several values = mixture of two or more isomers. In outline:
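Reversed-phase C18 HPLC at 40° C, 0.1% aqueous formic acid/acetonitrile linear gradient 10% to 90% acetonitrile, per EEC Directive 79831 Annex V.A8. log P obtained from retention time by linear interpolation between unbranched alkan-2-ones (C3-C16) of known log P.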

Series [2] concerns Puccinia triticina. The series is described as follows: Example L: in vivo preventive test on Puccinia triticina (wheat). The settings on record: 500 ppm of active ingredient, evaluated 8 days after inoculation. As to the method:
In Vivo Preventive Test on Puccinia triticina (Wheat)
Solvent: 49 parts by weight of N,N-dimethylacetamide
Emulsifier: 1 part by weight of alkylaryl polyglycol ether
To produce a suitable preparation of active compound, 1 part by weight of active compound or active compound combination is mixed with the stated amounts of solvent and emulsifier, and the concentrate is diluted with water to the desired concentration.
To test for preventive activity, young plants are sprayed with the preparation of active compound or active compound combination at the stated rate of application.
After the spray coating has been dried, the plants are sprayed with a spore suspension of Puccinia triticina.
The plants remain for 48 hours in an incubation cabinet at approximately 20° C. and a relative atmospheric humidity of approximately 100%.
The plants are placed in the greenhouse at a temperature of approximately 20° C. and a relative atmospheric humidity of approximately 80%.
The test is evaluated 8 days after the inoculation. 0% means an efficacy which corresponds to that of the untreated control, while an efficacy of 100% means that no disease is observed.

The subject of series [3] is Septoria tritici. As to the kind of experiment: Example H: in vivo preventive test on Septoria tritici (wheat), N,N-dimethylacetamide/emulsifier preparation. The settings on record: 500 ppm of active ingredient, evaluated 21 days after inoculation. As for the experimental part:
(§1) In Vivo Preventive Test on Septoria tritici (Wheat) Solvent: 49 parts by weight of N,N-dimethylacetamide Emulsifier: 1 part by weight of alkylaryl polyglycol ether To produce a suitable preparation of active compound, 1 part by weight of active compound or active compound combination is mixed with the stated amounts of solvent and emulsifier, and the concentrate is diluted with water to the desired concentration. To test for preventive activity, young plants are sprayed with the preparation of active compound or active compound combination at the stated rate of application. After the spray coating has been dried, the plants are sprayed with a spore suspension of Septoria tritici. The plants remain for 48 hours in an incubation cabinet at approximately 20° C. and a relative atmospheric humidity of approximately 100% and afterwards for 60 hours at approximately 15° C. in a translucent incubation cabinet at a relative atmospheric humidity of approximately 100%.

Series [4] has as its system Puccinia recondita. The series is described as follows: Example M: in vivo preventive test on Puccinia recondita (brown rust on wheat). The settings on record: 500 ppm of active ingredient, grading 12 days after contamination. In outline: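 Wheat (Scipion) sprayed with compound at 1-leaf stage, grown at 22° C. Inoculated 24 h later with a spore suspension at 100 000 spores per mL. Efficacy (%) graded 12 days after inoculation against solvent-treated controls.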

Series [5] deals with Leptosphaeria nodorum. The series is described as follows: Example K: in vivo preventive test on Leptosphaeria nodorum (wheat). The settings on record: 500 ppm of active ingredient, evaluated 8 days after inoculation. As for the experimental part:
as §1, with “Leptosphaeria nodorum” for “Septoria tritici”, “Leptosphaeria nodorum.” for “Septoria tritici.”, “approximately” for “approximately 100% and afterwards for 60 hours at approximately 15° C. in a translucent incubation cabinet at a relative atmospheric humidity of approximately”

For series [6], the system named is Fusarium nivale (var. majus). As to the kind of experiment: Example N: in vivo preventive test on Fusarium nivale (wheat). The settings on record: 500 ppm of active ingredient, evaluated 5 days after inoculation. As to the method: In Vivo Preventive Test on Fusarium nivale (Wheat) Solvent: 49 parts by weight of N,N-dimethylacetamide Emulsifier: 1 part by weight of alkylaryl polyglycol ether To produce a suitable preparation of active compound, 1 part by weight of active compound or active compound combination is mixed with the stated amounts of solvent and emulsifier, and the concentrate is diluted with water to the desired concentration. To test for preventive activity, young plants are sprayed with the preparation of active compound or active compound combination at the stated rate of application. After the spray coating has been dried, the plants are slightly injured by using a sandblast and afterwards they are sprayed with a conidia suspension of Fusarium nivale (var. majus). The plants are placed in the greenhouse under a translucent incubation cabinet at a temperature of approximately 10° C. and a relative atmospheric humidity of approximately 100%.

In series [7] the test system is Blumeria graminis f.sp. hordei. The series is described as follows: Example J: in vivo preventive test on Blumeria graminis (barley). The settings on record: 500 ppm of active ingredient, evaluated 7 days after inoculation. As for the experimental part:
In Vivo Preventive Test on Blumeria graminis (Barley) Solvent: 49 parts by weight of N,N-dimethylacetamide Emulsifier: 1 part by weight of alkylaryl polyglycol ether To produce a suitable preparation of active compound, 1 part by weight of active compound or active compound combination is mixed with the stated amounts of solvent and emulsifier, and the concentrate is diluted with water to the desired concentration. To test for preventive activity, young plants are sprayed with the preparation of active compound or active compound combination at the stated rate of application. After the spray coating has been dried, the plants are dusted with spores of Blumeria graminis f.sp. hordei.

For series [8], the system named is Venturia inaequalis. As to the kind of experiment: Example G: in vivo preventive test on Venturia inaequalis (apple scab). The settings on record: 100 ppm of active ingredient, evaluated 10 days after inoculation. As for the experimental part:
In Vivo Preventive Test on Venturia inaequalis (Apple Scab) Solvent: 24.5 parts by weight of acetone • 24.5 parts by weight of N,N-dimethylacetamide Emulsifier: 1 part by weight of alkylaryl polyglycol ether To produce a suitable preparation of active compound, 1 part by weight of active compound is mixed with the stated amounts of solvent and emulsifier, and the concentrate is diluted with water to the desired concentration. To test for preventive activity, young plants are sprayed with the preparation of active compound at the stated rate of application. After the spray coating has dried on, the plants are inoculated with an aqueous conidia suspension of the causal agent of apple scab (Venturia inaequalis) and then remain for 1 day in an incubation cabinet at approximately 20° C. and a relative atmospheric humidity of 100%. The plants are then placed in a greenhouse at approximately 21° C. and a relative atmospheric humidity of approximately 90%.

Consider `Cn1nc(C(F)F)c(C(=O)N(C2CC2)C2CC3CCCCC3C2)c1F` (stereo not shown) [Example 12], for which the logP in series [1] is listed as 4.11. For the same compound, the Efficacy worked out at 100% in series [2]; 100% in series [3]; 94% in series [4]; 93% in series [5]; 100% in series [6]; 100% in series [7].

On to `Cn1nc(C(F)F)c(C(=O)N(C2CC2)C2CCCC3CCCC32)c1F` (stereo not shown) [Example 19], for which the logP in series [1] is on record as 3.99. For the same compound, the Efficacy in series [2], in series [8], in series [3], in series [4], in series [5] and in series [6] was 100% throughout. Moreover, the Efficacy in series [7] worked out at 100%.

For `Cn1cc(C(=O)N(C2CC2)C2CCCC3CCCC32)c(C(F)F)n1` (stereo not shown) [Example 20], the log partition coefficient (logP) in series [1] is recorded as 3.48. Further, the Efficacy in series [2] was determined as 78%; in series [3], 100%; in series [4], 81%; in series [5], 86%; in series [6], 100%; in series [7] it was 95%.

Consider `Cn1nc(C(F)F)c(C(=O)N(CC2CCC3CCCC3C2)C2CC2)c1F` (stereo not shown) [Example 62], for which the logP in series [1] stood at 4.41. The Efficacy is on record as 100% in series [2]; 100% in series [3]; 98% in series [4]; 100% in series [5]; 100% in series [6]; 100% in series [7].

For `Cn1nc(C(F)F)c(C(=O)N(CC2(Cc3ccccc3)CC3CCC2C3)C2CC2)c1F` (stereo not shown) [Example 69], in series [1], the log partition coefficient (logP) turned out to be 4.91. Moreover, the Efficacy in series [3] turned out to be 100%; in series [4], 81%; in series [5], 100%; in series [6], 93%; in series [7] it was 100%.

For `Cn1nc(C(F)F)c(C(=O)N(CC2CC3CCC2C3)C2CC2)c1F` (stereo not shown) [Example 71], the logP in series [1] is 3.58. The Efficacy in series [2], in series [8], in series [3], in series [5], in series [6] and in series [7] was 100% each time.

For `CC(C1CC2CCC1C2)N(C(=O)c1c(C(F)F)nn(C)c1F)C1CC1` (stereo not shown) [Example 93], the logP in series [1] is given as 4.01. The Efficacy in series [2] was 100%; in series [8] it was 100%; in series [3], 83%; in series [5] it was 100%; in series [6], 100%; in series [7], 100%.
